From patent US20250326794A1, “ANTI-CANCER LEUCINE-RICH PEPTIDES AND USES THEREOF” (KING'S COLLEGE LONDON, priority 2019, published 2025)
Read-outs that look alike come from different tables or passages of the source.

Tests used:
[1] = Tryptophan fluorescent binding assay, 3POPC/1POPG vesicles; settings: 50 μM peptide, PBS pH 7.4, lipid per peptide
In short: (§1)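 Binding followed by tryptophan emission (300-450 nm, 280 nm excitation, 3 scans averaged) after 60 min incubation of 50 μM peptide with 0-5000 μM extruded 100 nm POPC or 3:1 POPC/POPG vesicles in PBS pH 7.4. Value: lipid-to-peptide ratio at half-maximal binding.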

[2] = Tryptophan fluorescent binding assay, POPC vesicles; settings: 50 μM peptide, PBS pH 7.4, lipid per peptide
In short: as §1

[3] = test system: HMLER-shEcad (human breast cancer stem cell); assay: cells
In short: (§2)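 MTT viability after 72 h exposure to 0–100 μM compound (final DMSO 0.5% or 0%), 5×10^3 cells/well; HMLER lines and MCF-10A in MEGM, U2OS in DMEM with 10% FBS. A550 normalized to matching vehicle controls; IC50 interpolated from dose–response curves.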

[4] = test system: HMLER (human breast cancer bulk cell); assay: cells
In short: as §2

[5] = test system: HEK293T (human embryonic kidney cell); assay: cells
[6] = test system: U2OS (human bone osteosarcoma)
In short: as §2

[7] = ANTS/DPX liposome leakage assay, POPC vesicles; type: biochemical; settings: 0.5 mM vesicles; for Peptide Concentration-induced 50% ANTS/DPX leakage at pH 4.8, POPC Vesicle: pH 4.8, lipid per peptide; for Peptide Concentration-induced 50% ANTS/DPX leakage at pH 7.4, POPC Vesicle: pH 7.4, lipid per peptide
In short: (§3)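 Peptide titrations (0–20 μM) were incubated 3 h with 0.5 mM ANTS/DPX-loaded 100 nm vesicles, either POPC alone or 3:1 POPC/POPG, at pH 7.4 or pH 4.8 in PBS. ANTS fluorescence (350/510 nm) normalized to Triton-lysed vesicles; 50%-leakage values given as lipid:peptide ratio.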

[8] = ANTS/DPX liposome leakage assay, 3POPC/1POPG vesicles; type: biochemical; settings: 0.5 mM vesicles; for Peptide Concentration-induced 50% ANTS/DPX leakage at pH 4.8, 3POPC/1POPG Vesicle: pH 4.8, lipid per peptide; for Peptide Concentration-induced 50% ANTS/DPX leakage at pH 7.4, 3POPC/1POPG Vesicle: pH 7.4, lipid per peptide
In short: as §3

## CC(C)C[C@H](NC(=O)CN)C(=O)N[C@@H](CC(C)C)C(=O)N[C@@H](CC(=O)O)C(=O)N[C@@H](CC(C)C)C(=O)N[C@@H](CC(C)C)C(=O)N[C@@H](Cc1c[nH]cn1)C(=O)N[C@@H](CC(C)C)C(=O)N[C@@H](CC(C)C)C(=O)N[C@@H](CC(C)C)C(=O)N[C@@H](CCCCN)C(=O)N[C@@H](C)C(=O)N[C@@H](C)C(=O)NCC(=O)N[C@@H](Cc1c[nH]c2ccccc12)C(N)=O [DHK]
[1]
  Lipid Concentration-induced 50% Peptide Binding, 3POPC/1POPG Vesicle: 0.38 L/P
[2]
  Lipid Concentration-induced 50% Peptide Binding, POPC Vesicle: 0.20 L/P
[3]; read-out: IC50 HMLER-shEcad, MTT, 72 hr
  IC50: 1.02 ± 0.12 µM
[4]; read-out: IC50 HMLER, MTT, 72 hr
  IC50: 1.75 ± 0.49 µM
[5]; read-out: IC50 HEK293T, MTT, 72 hr
  IC50: 7.3 ± 0.42 µM
[6]; read-out: IC50 U20S, MTT, 72 hr
  IC50: 20.4 ± 2.05 µM
[7]
  Peptide Concentration-induced 50% ANTS/DPX leakage at pH 4.8, POPC Vesicle: 47 L/P
  Peptide Concentration-induced 50% ANTS/DPX leakage at pH 7.4, POPC Vesicle: 747 L/P
[8]
  Peptide Concentration-induced 50% ANTS/DPX leakage at pH 4.8, 3POPC/1POPG Vesicle: 183 L/P
  Peptide Concentration-induced 50% ANTS/DPX leakage at pH 7.4, 3POPC/1POPG Vesicle: 469 L/P

## CC(C)C[C@H](NC(=O)CN)C(=O)N[C@@H](CC(C)C)C(=O)N[C@@H](CCCCN)C(=O)N[C@@H](CC(C)C)C(=O)N[C@@H](CC(C)C)C(=O)N[C@@H](Cc1c[nH]cn1)C(=O)N[C@@H](CC(C)C)C(=O)N[C@@H](CC(C)C)C(=O)N[C@@H](CC(C)C)C(=O)N[C@@H](CCCCN)C(=O)N[C@@H](C)C(=O)N[C@@H](C)C(=O)NCC(=O)N[C@@H](Cc1c[nH]c2ccccc12)C(N)=O [KHK]
[1]
  Lipid Concentration-induced 50% Peptide Binding, 3POPC/1POPG Vesicle: 0.38 L/P
[2]
  Lipid Concentration-induced 50% Peptide Binding, POPC Vesicle: 0.17 L/P
[3]; 72 h
  IC50: 1.4 ± 0.14 µM
[4]; 72 h
  IC50: 2.59 ± 0.92 µM
[5]; 72 h
  IC50: 3.55 ± 0.78 µM
[6]; 72 h
  IC50: 12.9 ± 1.24 µM
[7]
  Peptide Concentration-induced 50% ANTS/DPX leakage at pH 4.8, POPC Vesicle: 140 L/P
  Peptide Concentration-induced 50% ANTS/DPX leakage at pH 7.4, POPC Vesicle: 1153 L/P
[8]
  Peptide Concentration-induced 50% ANTS/DPX leakage at pH 4.8, 3POPC/1POPG Vesicle: 53 L/P
  Peptide Concentration-induced 50% ANTS/DPX leakage at pH 7.4, 3POPC/1POPG Vesicle: 193 L/P

## CC(C)C[C@H](NC(=O)CN)C(=O)N[C@@H](CC(C)C)C(=O)N[C@@H](CC(=O)O)C(=O)N[C@@H](CC(C)C)C(=O)N[C@@H](CC(C)C)C(=O)N[C@@H](CCCCN)C(=O)N[C@@H](CC(C)C)C(=O)N[C@@H](CC(C)C)C(=O)N[C@@H](CC(C)C)C(=O)N[C@@H](CCCCN)C(=O)N[C@@H](C)C(=O)N[C@@H](C)C(=O)NCC(=O)N[C@@H](Cc1c[nH]c2ccccc12)C(N)=O [DKK]
[1]
  Lipid Concentration-induced 50% Peptide Binding, 3POPC/1POPG Vesicle: 6.88 L/P
[2]
  Lipid Concentration-induced 50% Peptide Binding, POPC Vesicle: 2.75 L/P
[3]; 72 h
  IC50: 1.2 ± 0.14 µM
[4]; 72 h
  IC50: 1.95 ± 0.35 µM
[5]; 72 h
  IC50: 3.4 ± 0.28 µM
[6]; 72 h
  IC50: 10.4 ± 1.7 µM
[7]
  Peptide Concentration-induced 50% ANTS/DPX leakage at pH 4.8, POPC Vesicle: 47 L/P
  Peptide Concentration-induced 50% ANTS/DPX leakage at pH 7.4, POPC Vesicle: 463 L/P
[8]
  Peptide Concentration-induced 50% ANTS/DPX leakage at pH 4.8, 3POPC/1POPG Vesicle: 227 L/P
  Peptide Concentration-induced 50% ANTS/DPX leakage at pH 7.4, 3POPC/1POPG Vesicle: 156 L/P

## CC(C)C[C@H](NC(=O)CN)C(=O)N[C@@H](CC(C)C)C(=O)N[C@@H](CCCCN)C(=O)N[C@@H](CC(C)C)C(=O)N[C@@H](CC(C)C)C(=O)N[C@@H](CCCCN)C(=O)N[C@@H](CC(C)C)C(=O)N[C@@H](CC(C)C)C(=O)N[C@@H](CC(C)C)C(=O)N[C@@H](Cc1c[nH]cn1)C(=O)N[C@@H](C)C(=O)N[C@@H](C)C(=O)NCC(=O)N[C@@H](Cc1c[nH]c2ccccc12)C(N)=O [KKH]
[1]
  Lipid Concentration-induced 50% Peptide Binding, 3POPC/1POPG Vesicle: 0.48 L/P
[2]
  Lipid Concentration-induced 50% Peptide Binding, POPC Vesicle: 0.83 L/P
[3]; 72 h
  IC50: 2.2 ± 0.42 µM
[4]; 72 h
  IC50: 2.4 ± 0.85 µM
[5]; 72 h
  IC50: 4 ± 0.28 µM
[6]; 72 h
  IC50: 13.3 ± 0.99 µM
[7]
  Peptide Concentration-induced 50% ANTS/DPX leakage at pH 4.8, POPC Vesicle: 164 L/P
  Peptide Concentration-induced 50% ANTS/DPX leakage at pH 7.4, POPC Vesicle: 2119 L/P
[8]
  Peptide Concentration-induced 50% ANTS/DPX leakage at pH 4.8, 3POPC/1POPG Vesicle: 49 L/P
  Peptide Concentration-induced 50% ANTS/DPX leakage at pH 7.4, 3POPC/1POPG Vesicle: 227 L/P

## CC(C)C[C@H](NC(=O)CN)C(=O)N[C@@H](CC(C)C)C(=O)N[C@@H](CCC(=O)O)C(=O)N[C@@H](CC(C)C)C(=O)N[C@@H](CC(C)C)C(=O)N[C@@H](Cc1c[nH]cn1)C(=O)N[C@@H](CC(C)C)C(=O)N[C@@H](CC(C)C)C(=O)N[C@@H](CC(C)C)C(=O)N[C@@H](CCCCN)C(=O)N[C@@H](C)C(=O)N[C@@H](C)C(=O)NCC(=O)N[C@@H](Cc1c[nH]c2ccccc12)C(N)=O [EHK]
[1]
  Lipid Concentration-induced 50% Peptide Binding, 3POPC/1POPG Vesicle: 0.42 L/P
[2]
  Lipid Concentration-induced 50% Peptide Binding, POPC Vesicle: 0.56 L/P
[3]; 72 h
  IC50: 0.71 ± 0.13 µM
[4]; 72 h
  IC50: 1.35 ± 0.35 µM
[5]; 72 h
  IC50: 5.35 ± 0.07 µM
[6]; 72 h
  IC50: 25 µM
[7]
  Peptide Concentration-induced 50% ANTS/DPX leakage at pH 4.8, POPC Vesicle: 55 L/P
  Peptide Concentration-induced 50% ANTS/DPX leakage at pH 7.4, POPC Vesicle: 981 L/P
[8]
  Peptide Concentration-induced 50% ANTS/DPX leakage at pH 4.8, 3POPC/1POPG Vesicle: 117 L/P
  Peptide Concentration-induced 50% ANTS/DPX leakage at pH 7.4, 3POPC/1POPG Vesicle: 505 L/P

## CC(C)C[C@H](NC(=O)CN)C(=O)N[C@@H](CC(C)C)C(=O)N[C@@H](Cc1c[nH]cn1)C(=O)N[C@@H](CC(C)C)C(=O)N[C@@H](CC(C)C)C(=O)N[C@@H](CCCCN)C(=O)N[C@@H](CC(C)C)C(=O)N[C@@H](CC(C)C)C(=O)N[C@@H](CC(C)C)C(=O)N[C@@H](CCCCN)C(=O)N[C@@H](C)C(=O)N[C@@H](C)C(=O)NCC(=O)N[C@@H](Cc1c[nH]c2ccccc12)C(N)=O [HKK]
[1]
  Lipid Concentration-induced 50% Peptide Binding, 3POPC/1POPG Vesicle: 0.14 L/P
[2]
  Lipid Concentration-induced 50% Peptide Binding, POPC Vesicle: 0.18 L/P
[3]; 72 h
  IC50: 2.6 ± 0.42 µM
[4]; 72 h
  IC50: 3.4 ± 0.71 µM
[5]; 72 h
  IC50: 9.5 ± 0.99 µM
[6]; 72 h
  IC50: 12.23 ± 0.11 µM
[7]
  Peptide Concentration-induced 50% ANTS/DPX leakage at pH 4.8, POPC Vesicle: 106 L/P
  Peptide Concentration-induced 50% ANTS/DPX leakage at pH 7.4, POPC Vesicle: 657 L/P
[8]
  Peptide Concentration-induced 50% ANTS/DPX leakage at pH 4.8, 3POPC/1POPG Vesicle: 106 L/P
  Peptide Concentration-induced 50% ANTS/DPX leakage at pH 7.4, 3POPC/1POPG Vesicle: 90 L/P

## CC(C)C[C@H](NC(=O)CN)C(=O)N[C@@H](CC(C)C)C(=O)N[C@@H](Cc1c[nH]cn1)C(=O)N[C@@H](CC(C)C)C(=O)N[C@@H](CC(C)C)C(=O)N[C@@H](Cc1c[nH]cn1)C(=O)N[C@@H](CC(C)C)C(=O)N[C@@H](CC(C)C)C(=O)N[C@@H](CC(C)C)C(=O)N[C@@H](CCCCN)C(=O)N[C@@H](C)C(=O)N[C@@H](C)C(=O)NCC(=O)N[C@@H](Cc1c[nH]c2ccccc12)C(N)=O [HHK]
[1]
  Lipid Concentration-induced 50% Peptide Binding, 3POPC/1POPG Vesicle: 0.20 L/P
[2]
  Lipid Concentration-induced 50% Peptide Binding, POPC Vesicle: 0.68 L/P
[3]; 72 h
  IC50: 1.75 ± 0.21 µM
[4]; 72 h
  IC50: 3.15 ± 0.07 µM
[5]; 72 h
  IC50: 5.25 ± 1.48 µM
[6]; 72 h
  IC50: 12.7 ± 1.91 µM
[7]
  Peptide Concentration-induced 50% ANTS/DPX leakage at pH 4.8, POPC Vesicle: 149 L/P
  Peptide Concentration-induced 50% ANTS/DPX leakage at pH 7.4, POPC Vesicle: 1133 L/P
[8]
  Peptide Concentration-induced 50% ANTS/DPX leakage at pH 4.8, 3POPC/1POPG Vesicle: 111 L/P
  Peptide Concentration-induced 50% ANTS/DPX leakage at pH 7.4, 3POPC/1POPG Vesicle: 160 L/P

## CC(C)C[C@H](NC(=O)CN)C(=O)N[C@@H](CC(C)C)C(=O)N[C@@H](Cc1c[nH]cn1)C(=O)N[C@@H](CC(C)C)C(=O)N[C@@H](CC(C)C)C(=O)N[C@@H](Cc1c[nH]cn1)C(=O)N[C@@H](CC(C)C)C(=O)N[C@@H](CC(C)C)C(=O)N[C@@H](CC(C)C)C(=O)N[C@@H](CCC(=O)O)C(=O)N[C@@H](C)C(=O)N[C@@H](C)C(=O)NCC(=O)N[C@@H](Cc1c[nH]c2ccccc12)C(N)=O [HHE]
[1]
  Lipid Concentration-induced 50% Peptide Binding, 3POPC/1POPG Vesicle: 0.75 L/P
[2]
  Lipid Concentration-induced 50% Peptide Binding, POPC Vesicle: 1.00 L/P
[3]; 72 h
  IC50: 10.8 ± 0.78 µM
[4]; 72 h
  IC50: 16.7 ± 2.26 µM
[5]; 72 h
  IC50: 18.4 ± 3.75 µM
[6]; 72 h
  IC50: 53.2 ± 5.3 µM
[7]
  Peptide Concentration-induced 50% ANTS/DPX leakage at pH 4.8, POPC Vesicle: 143 L/P
  Peptide Concentration-induced 50% ANTS/DPX leakage at pH 7.4, POPC Vesicle: 842 L/P
[8]
  Peptide Concentration-induced 50% ANTS/DPX leakage at pH 4.8, 3POPC/1POPG Vesicle: 113 L/P
  Peptide Concentration-induced 50% ANTS/DPX leakage at pH 7.4, 3POPC/1POPG Vesicle: 411 L/P
